Target: T1, S-ribosylhomocysteine lyase (Vibrio harveyi, UniProt B0LUE4)
T1 sequence (B0LUE4 whole entry): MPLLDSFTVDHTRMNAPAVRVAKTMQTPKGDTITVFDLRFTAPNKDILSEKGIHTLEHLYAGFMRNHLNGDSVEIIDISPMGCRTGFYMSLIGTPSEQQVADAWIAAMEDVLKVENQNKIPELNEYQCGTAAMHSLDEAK
Assay: Vibrio harveyi growth inhibition, confirmation, counter-screen for AI-2 quorum sensing modulator project, absorbance, dose retest (AID 2725)

Row | Compound | EC50 [µM]
1 | Cn1cnc(S(=O)(=O)Nc2ccc(OC(F)(F)F)cc2)c1 [SMR000314513] | > 160
2 | CCc1ccc(S(=O)(=O)Nc2ccc(Br)cn2)cc1 [MLS001211346] | > 160
3 | CN(C)S(=O)(=O)c1ccc(NC(=S)NC(=O)Cc2ccccc2)cc1 [N-[[4-(dimethylsulfamoyl)phenyl]carbamothioyl]-2-phenyl-ethanamide] | > 160
4 | COc1cc(NC(=O)CN2C(=O)NC(c3ccccc3)(c3ccccc3)C2=O)cc(OC)c1 [MLS001176525] | 13.7
5 | Cc1cccc(NS(=O)(=O)c2ccc(Oc3ccccc3)cc2)n1 [SMR000071466] | > 160
6 | CCCc1ccc(S(=O)(=O)N(C)S(=O)(=O)c2ccc(F)cc2)cc1 [N-(4-fluorophenyl)sulfonyl-N-methyl-4-propylbenzenesulfonamide] | 4.55
7 | C=Cn1c(C(=O)O)ccc1-c1ccc(CC)cc1 | > 160
